Patent US9457033B2, “Steroid alkaloids and uses thereof as antimicrobial agents against electron transport-deficient microbes and as potentiators for antimicrobial agents against pathogenic bacteria” (priority 2011, dated 2016)
Values after ≈ are worked out from the molar mass of the structure shown. Like-named read-outs stand apart in the source and are kept apart here. Marks after values point to notes of the source that are not given here.

Legend:
[1] = tested on: heterogeneous population of normal strain CF07-L and SCV CF07-S; assay: Broth growth with gentamicin and tomatidine, visually evaluated (FIG. 5C); conditions: combination of gentamicin at 4 μg/ml and tomatidine at 0.12 μg/ml
[2] = tested on: colonies isolated from S. aureus ATCC 29213 cultures exposed to gentamicin; assay: Gentamicin susceptibility of colonies isolated from 24 h-cultures exposed to gentamicin; assay type: cell-based, Staphylococcus aureus
Description: Accordingly, colonies isolated from 24 h-cultures exposed to gentamicin were often normal-growing bacteria with a decreased susceptibility to gentamicin (MIC ranging from 1 to 4 μg/ml) or SCVs (MIC for gentamicin ranging from 4 to 8 μg/ml). […] From these time-kill experiments, isolated colonies obtained from cultures exposed to gentamicin combined or not with 8 μg/ml tomatidine were analyzed for their susceptibility to gentamicin. When ATCC 29213 was exposed to gentamicin alone, the emergence of numerous normal-growing isolates showing decreased susceptibility to gentamicin (MIC ranging from 1 to 4 mg/L) was easily detected.

SCV CF07-S = assay: Broth growth with gentamicin or tomatidine, visually evaluated (FIG. 5B); conditions: gentamicin at 4 μg/ml or tomatidine at 0.12 μg/ml alone, 48 h
[3] = tested on: S. saprophyticus ATCC 15305; assay: MIC, microdilution, with or without tomatidine; conditions: for MIC: Staphylococcus saprophyticus
[4] = tested on: S. aureus SCV strain CF6A-S; assay: microbe, parasite or virus in culture; assay type: cell-based; conditions: Staphylococcus aureus
[5] = tested on: S. aureus ATCC 29213 in co-culture with P. aeruginosa PA14; assay: Viability in co-culture with P. aeruginosa PA14, CAMHB; assay type: cell-based, Staphylococcus aureus; conditions: for Viability of S. aureus: SA + PA + TO at 8 μg/ml
Text: Bacteria were sampled, serially diluted and plated on tryptic soy agar for CFU determinations. […] Mannitol-salt agar plates were used to selectively evaluate S. aureus CFU when in co-culture with P. aeruginosa.

normal CF07-L strain = assay: Time-kill experiment (FIG. 1B); assay type: cell-based, Staphylococcus aureus; conditions: tomatidine 16 μg/ml
Description: (225 RPM), bacteria were sampled, serially diluted and plated on tryptic soy agar (TSA) for colony-forming unit (CFU) determinations (i.e., viable bacterial counts). Plates were incubated for 24 or 48 h at 35° C. for normal and SCV strains, respectively. The antibacterial activities of tomatidine and control antibiotics (erythromycin (a bacteriostatic macrolide) and ciprofloxacin (a bactericidal fluoroquinolone) against the normal CF07-L strain and the SCV CF07-S as a function of time are presented in FIGS. 1B and 1C, respectively. The antibacterial activity of tomatine against the SCV strain was also evaluated (TN in FIG. 1C).

[6] = tested on: normal S. aureus strain CF07-L; assay: Broth growth with HQNO and/or tomatidine, visually evaluated (FIG. 2); assay type: cell-based, Staphylococcus aureus; conditions: combination of HQNO (20 μg/ml) and tomatidine (8 μg/ml), 48 h
Description: The MICs of tomatidine, tomatine and control antibiotics (gentamicin, vancomycin, erythromycin, ciprofloxacin and oxacillin) were determined against the normal strains ATCC 29213 and CF07-L as well as against the SCV strain CF07-S in the presence of 20 μg HQNO/ml.

SCV NewbouldΔhemB = assay: Tomatidine susceptibility with supplemental hemin, spotted on agar (FIG. 1A); assay type: cell-based, Staphylococcus aureus; conditions: in the presence of supplemental hemin
Description: Normal (Newbould, CF07-L and CF1A-L), and SCV (NewbouldΔhemB (in the presence and absence of hemin), CF07-S (in the presence and absence of menadione) and CF1D-S) S. aureus strains were treated with various concentrations of tomatidine (4, 2, 1, 0.5, 0.25, 0.12 and 0.06 μg/ml) for 48 h in the Brain Hearth Infusion (BHI) medium at 35° C. and 10 μl samples were thereafter spotted on agar plated which were further incubated for 48 h before a picture was taken.

[7] = tested on: S. aureus SCVs (NewbouldΔhemB, CF07-S and CF1D-S); assay: MIC, microdilution in BHI 48 h, summary for SCVs; assay type: cell-based, Staphylococcus aureus; conditions: Staphylococcus aureus, read-out: MIC against all SCVs
[8] = tested on: protein, DNA, RNA and cell wall peptidoglycan biosynthesis in ATCC 29213; assay: Macromolecular biosynthesis assay, incorporation of radiolabeled precursors; assay type: cell-based, Staphylococcus aureus
[9] = tested on: Clostridium perfringens ATCC 13124; assay: microbe, parasite or virus in culture; assay type: cell-based; conditions: ATCC13124, 48 h, read-out: Diameter of inhibition zone
[10] = tested on: Bacillus cereus ATCC 11778; assay: Agar diffusion method, zone of inhibition; assay type: cell-based; conditions: ATCC11778, Tomatidine (35 μg), 24 hours at 35° C., DMSO 0, read-out: Diameter of inhibition zone
Description: (§1) The effect of tomatidine on the growth of Bacillus subtilis strains ATCC 6633 and ATCC 9372, Bacillus cereus strain ATCC 11778 and Listeria monocytogenes strain ATCC 13932 was tested by an agar diffusion method. Bacillus spp. strains and Listeria monocytogenes were spread on the surface of Mueller-Hinton agar and Mueller-Hinton supplemented with 5% sheep blood, respectively. 35 μg of tomatidine diluted in DMSO or DMSO alone were added to wells for diffusion and plates were incubated for 24 hours at 35° C. The diameters of the zones of inhibition around the wells (for the DMSO control and for the tomatidine well) were measured and reported in mm in TABLE 12 below.

[11] = tested on: Bacillus subtilis ATCC 9372; assay: Agar diffusion method, zone of inhibition; assay type: cell-based; conditions: ATCC9372, Tomatidine (35 μg), 24 hours at 35° C., DMSO 0, read-out: Diameter of inhibition zone
Description: as §1

[12] = tested on: Listeria monocytogenes ATCC 13932; assay: Agar diffusion method, zone of inhibition; assay type: cell-based; conditions: ATCC13932, Tomatidine (35 μg), 24 hours at 35° C., 5% sheep blood, DMSO 0, read-out: Diameter of inhibition zone
Description: as §1

[13] = tested on: Bacillus subtilis ATCC 6633; assay: Agar diffusion method, zone of inhibition; assay type: cell-based; conditions: ATCC6633, Tomatidine (35 μg), 24 hours at 35° C., DMSO 5, read-out: Diameter of inhibition zone
Description: as §1

S. aureus SCV CF07S = assay: microbe, parasite or virus in culture; assay type: cell-based; conditions: Staphylococcus aureus, SCVCF07S; Tomatidine (50 μg); menadione auxotrophy; 24 hours at 37° C. with O2; DMSO control 0; read-out: Diameter of inhibition zone
[14] = colonies from 24 h-cultures exposed to gentamicin

Compound: gentamicin
- growth, visually evaluated [1]: inhibits the growth
- MIC of normal-growing isolates showing decreased susceptibility to gentamicin ([2]; ATCC 29213 exposed to gentamicin alone): 1 to 4 µg/mL
- MIC for gentamicin of SCVs [2, 14]: 4 to 8 µg/mL
- MIC for gentamicin of normal-growing bacteria with decreased susceptibility [2, 14]: 1 to 4 µg/mL
- growth, visually evaluated (SCV CF07-S): does not inhibit the growth

Compound: NC[C@H]1O[C@H](O[C@H]2[C@H](O)[C@@H](O[C@H]3O[C@H](CO)[C@@H](O)[C@H](N)[C@H]3O)[C@H](N)C[C@@H]2N)[C@H](N)C[C@@H]1O [Tobramycin, tobramycin]
- Fold (−TO/+TO) ([3]; S. saprophyticus ATCC 15305, 8 μg/ml of tomatidine): 8 fold
- MIC ([3]; ATCC15305, read-out: MIC +TO): 0.016 µg/mL (≈ 0.0342 µM)
- MIC ([3]; ATCC15305, read-out: MIC −TO): 0.12 µg/mL (≈ 0.257 µM)
- MIC [4]: > 32 µg/mL

Compound: C[C@H]1CC[C@]2(NC1)O[C@H]1C[C@H]3[C@@H]4CC[C@H]5C[C@@H](O)CC[C@]5(C)[C@H]4CC[C@]3(C)[C@H]1[C@@H]2C [Tomatidine, tomatidine]
- Viability of S. aureus ([5]; 0 h): 5.4 ± 0.1 Log10 CFU/ml
- Viability of S. aureus ([5]; 24 h): 2 ± 1 ^b Log10 CFU/ml
- type of antibacterial effect ([5]; in co-culture with P. aeruginosa, tomatidine 8 μg/ml): bactericidal
- time-kill effect on growth (normal CF07-L strain): does not affect the growth
- growth, visually evaluated [6]: inhibitory activity
- susceptibility to tomatidine (SCV NewbouldΔhemB): abolished
- MIC [7]: 0.12 µg/mL (≈ 0.289 µM)
- biosynthesis of macromolecules ([8]; in the presence of 20 μg HQNO/ml, all tested concentrations above 0.12 μg/ml, FIG. 3C): decreased the biosynthesis of all macromolecules
- synthesis of macromolecules ([8]; tomatidine up to 125 μg/ml, no HQNO, vs DMSO-treated control, FIG. 3B): did not alter the synthesis of any macromolecule
- zone of inhibition at 50 µg/disc [9]: 11 mm
- zone of inhibition at 35 µg/disc [10]: 21.5 mm
- zone of inhibition at 35 µg/disc [11]: 25.5 mm
- zone of inhibition at 35 µg/disc [12]: 12.5 mm
- zone of inhibition at 35 µg/disc [13]: 25.5 mm
- zone of inhibition at 50 µg/disc (S. aureus SCV CF07S): 22.5 mm
